Laboratory results as given in patent US20220288115A1, “ORAL DISODIUM PYR[…] USE IN REDUCING CALCIFICATION” (priority 2019, published 2022).

Assays:
[1] = three months after the operation; 44 mg/kg per oral once daily
Protocol: As PXE patients have an increased risk of spontaneous gastrointestinal bleeding, aspirin medication was not used preoperatively. […] With the present therapy the patients absorbs extra 0.8 mg sodium and is informed to decrease daily salt intake.
Aspirin and PPi therapy were continued unaltered.

[2] = single oral dose, PXE patient, fasting baseline 0.7 μmol/l (FIG. 2)
Text: Legend indicates the dose (per kg of body weight) and time of PPi consumption.

[3] = human subjects
Text: FIG. 1: Plasma bioavailability of PPi after oral disodium PPi and after oral tetrasodium PPI. Results of different subjects (#) are shown, as well as AUC and AUC/mg PPi.
In this experiment PPI bioavailability was compared between tetrasodium PPi and disodium PPi in different human subjects (as indicated by # in FIG. 1).

SMILES: O=P([O-])([O-])OP(=O)(O)O.[Na+].[Na+] [disodium pyrophosphate]
- re-stenosis on computed tomography angiography (CTA) (one year postoperatively): without signs of re-stenosis
- Walking Impairment Questionnaire (WIQ) score (one year postoperatively, baseline 0.19, 44 mg/kg per oral once daily): 0.89
- re-stenosis in the operated area on MRA (three months after the operation): no re-stenosis
- safety laboratory tests [1]: normal
- time plasma pyrophosphate stayed in the normal fasting range of healthy controls (0.8-1.6 μmol/l) [2]: 180 min
- PPi bioavailability in plasma after oral uptake ([3]; compared with oral tetrasodium PPi (FIG. 1)): much better bioavailable
- area under the curve (AUC) and calculated AUC/mg PPi of plasma PPi ([3]; oral, compared with tetrasodium PPi): higher
